# Publication PMC8373063 (2021)
# Assays:
# [1] = tested on: S5 (DNA, single strand) AAAAGAAUGAAGGTGCTC; assay: fluorescence polarization; conditions: 100 mM NaCl, 1 mM MgCl2; 20 mM HEPES, 25 °C, 0.5 μM compound
# [2] = tested on: S7 (DNA, single strand) AATAGAAGGAAGGTGCTC; assay: fluorescence polarization; conditions: 100 mM NaCl, 1 mM MgCl2; 20 mM HEPES, 25 °C, 0.5 μM compound
# [3] = tested on: S3 (DNA, single strand) AAAAGAAGGAAGGTGATA; assay: fluorescence polarization; conditions: 100 mM NaCl, 1 mM MgCl2; 20 mM HEPES, 25 °C, 0.5 μM compound
# [4] = tested on: DNA Seq6 (DNA, single strand) TGAAGGAAGGT; assay: ITC; conditions: 100 mM NaCl; 30 mM MES pH 6.1, 5% DMSO, 25 °C
# [5] = tested on: S2 (DNA, single strand) AAAAGAAGGAAGGAGCAC; assay: fluorescence polarization; conditions: 100 mM NaCl, 1 mM MgCl2; 20 mM HEPES, 25 °C, 0.5 μM compound
# [6] = tested on: DNA S9 (DNA, single strand) AAAATAAGGAAGGTGCTC; assay: fluorescence polarization; conditions: 100 mM NaCl, 1 mM MgCl2; 20 mM HEPES, 25 °C; 0.5 μM SMN-C2
# [7] = tested on: RNA Seq8 (RNA, single strand) UGAAGGAAGUU; assay: fluorescence polarization; conditions: 100 mM NaCl; 20 mM HEPES, 25 °C; 0.5 μM SMN-C2
# [8] = tested on: DNA S18 (DNA, single strand) AAAAGGAGGAAGGTGCTC; assay: fluorescence polarization; conditions: 100 mM NaCl, 1 mM MgCl2; 20 mM HEPES, 25 °C; 0.5 μM SMN-C2
# [9] = tested on: RNA Seq4 (immobilised) (RNA, single strand) AAGAAGGAAGGUGC; assay: SPR, immobilised RNA; conditions: running buffer not shown; SMN-C2 up to 20 μM
# [10] = tested on: DNA Seq15 (DNA, single strand) TGAAGGATGGT; assay: fluorescence polarization; conditions: 100 mM NaCl, 1 mM MgCl2; 20 mM HEPES, 25 °C; 0.5 μM SMN-C2
# [11] = tested on: RNA Seq14 (RNA, single strand) AGAAGGUAGGU; assay: fluorescence polarization; conditions: 100 mM NaCl; 20 mM HEPES, 25 °C; 0.5 μM SMN-C2
# [12] = tested on: DNA Seq21 (DNA, hairpin) GCGCCGACTGAAGGAAGGAGTCGGCGC; assay: fluorescence polarization; conditions: 100 mM NaCl, 1 mM MgCl2; 20 mM HEPES, 25 °C, 0.5 μM compound
# [13] = tested on: RNA Seq13 (RNA, single strand) UGAAGAAAGGU; assay: fluorescence polarization; conditions: 100 mM NaCl; 20 mM HEPES, 25 °C; 0.5 μM SMN-C2
# [14] = tested on: DNA Seq22 (DNA, other) GTGCCAGTTCGCTGGCACTGAAGGAAGGT; assay: fluorescence polarization; conditions: 100 mM NaCl, 1 mM MgCl2; 20 mM HEPES, 25 °C, 0.5 μM compound
# [15] = tested on: S24 (DNA, single strand) AAAAGAAGGAAAGTGCTC; assay: fluorescence polarization; conditions: 100 mM NaCl, 1 mM MgCl2; 20 mM HEPES, 25 °C, 0.5 μM compound
# [16] = tested on: S10 (DNA, single strand) AAAAGTAGGAAGGTGCTC; assay: fluorescence polarization; conditions: 100 mM NaCl, 1 mM MgCl2; 20 mM HEPES, 25 °C, 0.5 μM compound
# [17] = tested on: DNA Seq2 (DNA, single strand) GAAGGAAGG; assay: fluorescence polarization; conditions: 100 mM NaCl, 1 mM MgCl2; 20 mM HEPES, 25 °C; 0.5 μM SMN-C2
# [18] = tested on: RNA Seq4 (RNA, single strand) AAGAAGGAAGGUGC; assay: fluorescence polarization; conditions: 100 mM NaCl; 20 mM HEPES, 25 °C, 0.5 μM compound
# [19] = tested on: RNA Seq9 (RNA, single strand) UUAAGGAAGUU; assay: fluorescence polarization; conditions: 100 mM NaCl; 20 mM HEPES, 25 °C; 0.5 μM SMN-C2
# [20] = tested on: S16 (DNA, single strand) AAAAGAAGGAAGTTGCTC; assay: fluorescence polarization; conditions: 100 mM NaCl, 1 mM MgCl2; 20 mM HEPES, 25 °C, 0.5 μM compound
# [21] = tested on: RNA Seq20 (RNA, hairpin) UGAAGGAAGGUUUCGACCUUCCUUCA; assay: fluorescence polarization; conditions: 100 mM NaCl; 20 mM HEPES, 25 °C, 0.5 μM compound
# [22] = tested on: DNA Seq11 (DNA, single strand) TGGAGGAAGGT; assay: fluorescence polarization; conditions: 100 mM NaCl, 1 mM MgCl2; 20 mM HEPES, 25 °C; 0.5 μM SMN-C2
# [23] = tested on: S23 (DNA, single strand) AAAAGAAGAAAGGTGCTC; assay: fluorescence polarization; conditions: 100 mM NaCl, 1 mM MgCl2; 20 mM HEPES, 25 °C, 0.5 μM compound
# [24] = tested on: DNA Seq16 (DNA, single strand) TGAAGGAAAGT; assay: fluorescence polarization; conditions: 100 mM NaCl, 1 mM MgCl2; 20 mM HEPES, 25 °C; 0.5 μM SMN-C2
# [25] = tested on: RNA Seq6 (RNA, single strand) UGAAGGAAGGU; assay: fluorescence polarization; conditions: 100 mM NaCl; 20 mM HEPES, 25 °C; 0.5 μM SMN-C2
# [26] = tested on: S17 (DNA, single strand) AAAGGAAGGAAGGTGCTC; assay: fluorescence polarization; conditions: 100 mM NaCl, 1 mM MgCl2; 20 mM HEPES, 25 °C, 0.5 μM compound
# [27] = tested on: S15 (DNA, single strand) AAAAGAAGGAATGTGCTC; assay: fluorescence polarization; conditions: 100 mM NaCl, 1 mM MgCl2; 20 mM HEPES, 25 °C, 0.5 μM compound
# [28] = tested on: S4 (DNA, single strand) AAAAAGAAGAAGGTGCTC; assay: fluorescence polarization; conditions: 100 mM NaCl, 1 mM MgCl2; 20 mM HEPES, 25 °C, 0.5 μM compound
# [29] = tested on: DNA Seq12 (DNA, single strand) TGAAAGAAGGT; assay: fluorescence polarization; conditions: 100 mM NaCl, 1 mM MgCl2; 20 mM HEPES, 25 °C; 0.5 μM SMN-C2
# [30] = tested on: DNA S8 (DNA, single strand) AAATGAAGGAAGGTGCTC; assay: fluorescence polarization; conditions: 100 mM NaCl, 1 mM MgCl2; 20 mM HEPES, 25 °C; 0.5 μM SMN-C2
# [31] = tested on: DNA Seq17 (DNA, single strand) TGAAGGAAGAT; assay: fluorescence polarization; conditions: 100 mM NaCl, 1 mM MgCl2; 20 mM HEPES, 25 °C; 0.5 μM SMN-C2
# [32] = tested on: DNA Seq10 (DNA, single strand) TAAAGGAAGGT; assay: fluorescence polarization; conditions: 100 mM NaCl, 1 mM MgCl2; 20 mM HEPES, 25 °C; 0.5 μM SMN-C2
# [33] = tested on: S13 (DNA, single strand) AAAAGAAGGTAGGTGCTC; assay: fluorescence polarization; conditions: 100 mM NaCl, 1 mM MgCl2; 20 mM HEPES, 25 °C, 0.5 μM compound
# [34] = tested on: DNA Seq7 (DNA, single strand) TTAAGGAAGGT; assay: fluorescence polarization; conditions: 100 mM NaCl, 1 mM MgCl2; 20 mM HEPES, 25 °C; 0.5 μM SMN-C2
# [35] = tested on: DNA Seq20 (DNA, hairpin) TGAAGGAAGGTTTCGACCTTCCTTCA; assay: fluorescence polarization; conditions: 100 mM NaCl, 1 mM MgCl2; 20 mM HEPES, 25 °C, 0.5 μM compound
# [36] = tested on: RNA Seq17 (RNA, single strand) UGAAGGAAGAU; assay: fluorescence polarization; conditions: 100 mM NaCl; 20 mM HEPES, 25 °C; 0.5 μM SMN-C2
# [37] = tested on: S25 (DNA, single strand) AAAAGAAGGAAGATGCTC; assay: fluorescence polarization; conditions: 100 mM NaCl, 1 mM MgCl2; 20 mM HEPES, 25 °C, 0.5 μM compound
# [38] = tested on: DNA Seq6 (DNA, single strand) TGAAGGAAGGT; assay: fluorescence polarization; conditions: 100 mM NaCl, 1 mM MgCl2; 20 mM HEPES, 25 °C; 0.5 μM SMN-C2
compound,measurement,setting,value
CCN1CCN(c2ccc3cc(-c4cn5cc(C)nc(C)c5n4)c(=O)oc3c2)C[C@@H]1C,Kd,[1],42.3 ± 4.2 µM
same,Kd,[2],17.3 ± 1.7 µM
same,Kd,[3],21.7 ± 2.7 µM
same,Kd,[4],4.8 µM
same,Kd,[5],20.2 ± 1.7 µM
same,Kd,[6],56.2 ± 13.9 µM
same,Kd,[7],> 100 µM
same,Kd,[8],> 50 µM
same,Kd,[9],5.4 µM
same,Kd,[10],41.1 ± 4.4 µM
same,Kd,[11],9.9 ± 0.8 µM
same,Kd,[12],12.8 ± 4.7 µM
same,Kd,[13],> 100 µM
same,Kd,[14],10.0 ± 0.5 µM
same,Kd,[15],36.8 ± 11.4 µM
same,Kd,[16],26.4 ± 2.2 µM
same,Kd,[17],34.3 ± 9.6 µM
same,Kd,[18],21.7 ± 4.3 µM
same,Kd,[19],> 100 µM
same,Kd,[20],48.9 ± 12.2 µM
same,Kd,[21],> >100 μM
same,Kd,[22],57.3 ± 20.0 µM
same,Kd,[23],> > 50 µM
same,Kd,[24],27.4 ± 6.0 µM
same,Kd,[25],17.5 ± 2.2 µM
same,Kd,[26],16.5 ± 1.1 µM
same,Kd,[27],31.4 ± 4 µM
same,Kd,[28],> > 50 µM
same,Kd,[29],17.6 ± 3.4 µM
same,Kd,[30],12.4 ± 0.4 µM
same,Kd,[31],56.4 ± 10.4 µM
same,Kd,[32],> 100 µM
same,Kd,[33],26.4 ± 2.2 µM
same,Kd,[34],> 100 µM
same,Kd,[35],52.0 ± 25.7 µM
same,Kd,[36],48.2 ± 9.0 µM
same,Kd,[37],48 ± 7.8 µM
same,Kd,[38],3.1 ± 0.7 µM
